Literature values, collected in patent publication US9233112B2, “Pharmaceutical compositions of cefixime” (LUPIN LIMITED, priority 2006, dated 2016).

C=CC1=C(C(=O)O)N2C(=O)[C@@H](NC(=O)/C(=N\OCC(=O)O)c3csc(N)n3)[C@H]2SC1 [Cefixime]
Solubility in water: poorly soluble in water
